Data reported in ChEMBL document CHEMBL1806455, “Synthesis, activity and pharmacokinetics of novel antibacterial 15-membered ring macrolones” (Eur J Med Chem, 2011).
≈ marks a conversion by molar mass, not a printed value.

Columns and labels:
Type in all cases: functional
Staphylococcus aureus [1] = experiment: Antibacterial activity against erythromycin-sensitive Staphylococcus aureus ATCC 13709 by broth microdilution method
Streptococcus pneumoniae [2] = experiment: Antibacterial activity against erythromycin-sensitive Streptococcus pneumoniae SP030 by broth microdilution method
Streptococcus pyogenes [3] = experiment: Antibacterial activity against erythromycin-sensitive Streptococcus pyogenes 3565 by broth microdilution method
Staphylococcus aureus [4] = experiment: Antibacterial activity against efflux-mediated macrolide-resistant Staphylococcus aureus PK1 by broth microdilution method
Streptococcus pneumoniae [5] = experiment: Antibacterial activity against efflux-mediated macrolide-resistant Streptococcus pneumoniae Ci137 by broth microdilution method
Streptococcus pyogenes [6] = experiment: Antibacterial activity against efflux-mediated macrolide-resistance Streptococcus pyogenes 2 Finland by broth microdilution method
Staphylococcus aureus [7] = experiment: Antibacterial activity against inducible macrolide-lincosamide-streptogramin B resistant Staphylococcus aureus 90256 by broth microdilution method
Streptococcus pneumoniae [8] = experiment: Antibacterial activity against inducible macrolide-resistant, constitutive lincosamide, streptogramin-resistant Streptococcus pneumoniae 134 GR M by broth microdilution method
Streptococcus pyogenes [9] = experiment: Antibacterial activity against inducible macrolide-lincosamide-streptogramin B resistant Streptococcus pyogenes Finland 11 by broth microdilution method
Staphylococcus aureus [10] = experiment: Antibacterial activity against constitutive macrolide, lincosamide, streptogramin-resistant Staphylococcus aureus PK2 by broth microdilution method
Streptococcus pneumoniae [11] = experiment: Antibacterial activity against constitutive macrolide, lincosamide, streptogramin-resistant Streptococcus pneumoniae 58 spain by broth microdilution method
Streptococcus pyogenes [12] = experiment: Antibacterial activity against macrolide, lincosamide, streptogramin-resistant Streptococcus pyogenes 166 GR-Micro by broth microdilution method
Haemophilus influenzae = experiment: Antibacterial activity against Haemophilus influenzae ATCC 49247 by broth microdilution method
Moraxella catarrhalis = experiment: Antibacterial activity against Moraxella catarrhalis ATCC 23246 by broth microdilution method

Row | Structure (SMILES) | MIC (Staphylococcus aureus [1]) | MIC (Streptococcus pneumoniae [2]) | MIC (Streptococcus pyogenes [3]) | MIC (Staphylococcus aureus [4]) | MIC (Streptococcus pneumoniae [5]) | MIC (Streptococcus pyogenes [6]) | MIC (Staphylococcus aureus [7]) | MIC (Streptococcus pneumoniae [8]) | MIC (Streptococcus pyogenes [9]) | MIC (Staphylococcus aureus [10]) | MIC (Streptococcus pneumoniae [11]) | MIC (Streptococcus pyogenes [12]) | MIC (Haemophilus influenzae) | MIC (Moraxella catarrhalis)
1 | CC[C@H]1OC(=O)[C@H](C)[C@@H](O[C@H]2C[C@@](C)(OC)[C@@H](OC(=O)CCOCCOCCNc3ccc4c(c3)c(=O)c(C(=O)O)cn4CC)[C@H](C)O2)[C@H](C)[C@@H](O[C@@H]2O[C@H](C)C[C@H](N(C)C)[C@H]2O)[C@](C)(O)C[C@@H](C)CN(C)[C@H](C)[C@@H](O)[C@]1(C)O | 0.25 mg/L (≈ 0.223 µM) | ≤ 0.125 mg/L | ≤ 0.125 mg/L | ≤ 0.125 mg/L | ≤ 0.125 mg/L | ≤ 0.125 mg/L | 0.25 mg/L (≈ 0.223 µM) | 1 mg/L (≈ 0.89 µM) | ≤ 0.125 mg/L | 64 mg/L (≈ 57 µM) | ≤ 0.125 mg/L | ≤ 0.125 mg/L | 2 mg/L (≈ 1.78 µM) | 2 mg/L (≈ 1.78 µM)
2 | CC[C@H]1OC(=O)[C@H](C)[C@@H](O[C@H]2C[C@@](C)(OC)[C@@H](OC(=O)CCOCCOCCNc3ccc4c(c3)c(=O)c(C(=O)O)cn4C3CC3)[C@H](C)O2)[C@H](C)[C@@H](O[C@@H]2O[C@H](C)C[C@H](N(C)C)[C@H]2O)[C@](C)(O)C[C@@H](C)CN(C)[C@H](C)[C@@H](O)[C@]1(C)O | ≤ 0.125 mg/L | ≤ 0.125 mg/L | ≤ 0.125 mg/L | ≤ 0.125 mg/L | ≤ 0.125 mg/L | ≤ 0.125 mg/L | 0.5 mg/L (≈ 0.44 µM) | ≤ 0.125 mg/L | ≤ 0.125 mg/L | 16 mg/L (≈ 14.1 µM) | ≤ 0.125 mg/L | ≤ 0.125 mg/L | 0.5 mg/L (≈ 0.44 µM) | 0.25 mg/L (≈ 0.22 µM)
3 | CCCOC(=O)c1cn(C2CC2)c2cc(Cl)c(NCCOCCC(=O)O[C@H]3[C@H](C)O[C@@H](O[C@H]4[C@H](C)[C@@H](O[C@@H]5O[C@H](C)C[C@H](N(C)C)[C@H]5O)[C@](C)(O)C[C@@H](C)CN(C)[C@H](C)[C@@H](O)[C@](C)(O)[C@@H](CC)OC(=O)[C@@H]4C)C[C@@]3(C)OC)cc2c1=O | 1 mg/L (≈ 0.856 µM) | ≤ 0.125 mg/L | ≤ 0.125 mg/L | 1 mg/L (≈ 0.856 µM) | ≤ 0.125 mg/L | ≤ 0.125 mg/L | 1 mg/L (≈ 0.856 µM) | ≤ 0.125 mg/L | ≤ 0.125 mg/L | > 64 mg/L | ≤ 0.125 mg/L | ≤ 0.125 mg/L | 4 mg/L (≈ 3.43 µM) | 2 mg/L (≈ 1.71 µM)
4 | CC[C@H]1OC(=O)[C@H](C)[C@@H](O[C@H]2C[C@@](C)(OC)[C@@H](OC(=O)CCOCCNc3cc4c(=O)c(C(=O)OCOCCOC)cn(C5CC5)c4cc3Cl)[C@H](C)O2)[C@H](C)[C@@H](O[C@@H]2O[C@H](C)C[C@H](N(C)C)[C@H]2O)[C@](C)(O)C[C@@H](C)CN(C)[C@H](C)[C@@H](O)[C@]1(C)O | 1 mg/L (≈ 0.824 µM) | ≤ 0.125 mg/L | ≤ 0.125 mg/L | 2 mg/L (≈ 1.65 µM) | ≤ 0.125 mg/L | ≤ 0.125 mg/L | 2 mg/L (≈ 1.65 µM) | ≤ 0.125 mg/L | ≤ 0.125 mg/L | > 64 mg/L | 0.25 mg/L (≈ 0.206 µM) | ≤ 0.125 mg/L | 8 mg/L (≈ 6.59 µM) | 8 mg/L (≈ 6.59 µM)
5 | CC[C@H]1OC(=O)[C@H](C)[C@@H](O[C@H]2C[C@@](C)(OC)[C@@H](OC(=O)CCOCCNc3cc4c(=O)c(C(=O)OCOC(=O)C(C)(C)C)cn(C5CC5)c4cc3Cl)[C@H](C)O2)[C@H](C)[C@@H](O[C@@H]2O[C@H](C)C[C@H](N(C)C)[C@H]2O)[C@](C)(O)C[C@@H](C)CN(C)[C@H](C)[C@@H](O)[C@]1(C)O | 1 mg/L (≈ 0.806 µM) | ≤ 0.125 mg/L | ≤ 0.125 mg/L | 2 mg/L (≈ 1.61 µM) | ≤ 0.125 mg/L | ≤ 0.125 mg/L | 4 mg/L (≈ 3.23 µM) | ≤ 0.125 mg/L | ≤ 0.125 mg/L | > 64 mg/L | 0.5 mg/L (≈ 0.403 µM) | ≤ 0.125 mg/L | 1 mg/L (≈ 0.806 µM) | 2 mg/L (≈ 1.61 µM)
6 | CC[C@H]1OC(=O)[C@H](C)[C@@H](O[C@H]2C[C@@](C)(OC)[C@@H](O)[C@H](C)O2)[C@H](C)[C@@H](O[C@@H]2O[C@H](C)C[C@H](N(C)C)[C@H]2O)[C@](C)(O)C[C@@H](C)CN(C)[C@H](C)[C@@H](O)[C@]1(C)O [AZITHROMYCIN] | 0.5 mg/L (≈ 0.668 µM) | ≤ 0.125 mg/L | ≤ 0.125 mg/L | 32 mg/L (≈ 42.7 µM) | 8 mg/L (≈ 10.7 µM) | 8 mg/L (≈ 10.7 µM) | > 64 mg/L | > 64 mg/L | 16 mg/L (≈ 21.4 µM) | > 64 mg/L | > 64 mg/L | > 64 mg/L | 1 mg/L (≈ 1.34 µM) | ≤ 0.125 mg/L
7 | CC[C@H]1OC(=O)[C@H](C)C(=O)[C@H](C)[C@@H](O[C@@H]2O[C@H](C)C[C@H](N(C)C)[C@H]2O)[C@](C)(OC)C[C@@H](C)C(=O)[C@H](C)[C@H]2N(CCCCn3cnc(-c4cccnc4)c3)C(=O)O[C@]12C [TELITHROMYCIN] | 0.125 mg/L (≈ 0.154 µM) | ≤ 0.125 mg/L | ≤ 0.125 mg/L | ≤ 0.125 mg/L | 0.25 mg/L (≈ 0.308 µM) | 0.5 mg/L (≈ 0.616 µM) | ≤ 0.125 mg/L | 0.25 mg/L (≈ 0.308 µM) | 0.06 mg/L (≈ 0.0739 µM) | > 64 mg/L | 0.25 mg/L (≈ 0.308 µM) | 16 mg/L (≈ 19.7 µM) | 2 mg/L (≈ 2.46 µM) | ≤ 0.125 mg/L
